Target: T1, BCRP (Homo sapiens, UniProt Q9UNQ0)
T1 sequence (Q9UNQ0 1-655): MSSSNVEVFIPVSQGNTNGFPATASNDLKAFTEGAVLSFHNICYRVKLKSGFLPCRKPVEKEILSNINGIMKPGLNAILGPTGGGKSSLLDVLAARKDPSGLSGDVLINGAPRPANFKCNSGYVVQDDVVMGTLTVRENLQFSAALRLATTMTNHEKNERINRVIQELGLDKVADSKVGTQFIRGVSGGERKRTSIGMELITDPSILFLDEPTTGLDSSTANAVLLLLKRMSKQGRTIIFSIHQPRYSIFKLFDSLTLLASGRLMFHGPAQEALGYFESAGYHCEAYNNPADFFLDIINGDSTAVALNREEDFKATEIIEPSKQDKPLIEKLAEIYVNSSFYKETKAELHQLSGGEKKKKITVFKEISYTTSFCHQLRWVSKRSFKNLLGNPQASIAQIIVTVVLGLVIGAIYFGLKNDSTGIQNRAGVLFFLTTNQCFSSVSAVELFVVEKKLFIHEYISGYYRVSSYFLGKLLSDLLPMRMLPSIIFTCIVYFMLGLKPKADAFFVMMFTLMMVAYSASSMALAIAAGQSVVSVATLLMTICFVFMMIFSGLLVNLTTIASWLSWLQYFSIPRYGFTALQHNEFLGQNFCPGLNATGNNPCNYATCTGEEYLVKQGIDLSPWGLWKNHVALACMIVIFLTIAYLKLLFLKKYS
Test: Transporter substrate determination, bi-directional permeability in MDCKII-BCRP cells
Format: in vitro ADME
Design: host or cells: MDCKII
Settings: for substrate of the transporter: BCRP; for Maximum Ratio (net flux in transporter‐expressing cells to control cells): MDCKII‐BCRP, 0.1, 1, 10 µM, threshold ≥2‐fold suggests substrate
Procedure: LC‐MS/MS analyses to assess metabolic stability and identify the transporter substrate were performed using an API 4000 QTRAP mass spectrometer (SCIEX, Framingham, MA) with electrospray ionization in positive mode. Chromatography was performed using an Atlantis dC18 analytical column (100 × 2.1 mm, 5 µm; Waters Corporation, Milford, MA). Mobile phases were 0.2% v/v formic acid in water and 0.2% v/v formic acid in acetonitrile. For metabolic stability experiments, FFA and metabolites were eluted at a flow rate of 0.6 mL/min, with a linear gradient of 20%−80% acetonitrile from 0.30−2.0 min. For transporter substrate experiments, the gradient was slightly modified to achieve suitable chromatography. The mass transitions monitored were 232.0 > 159.0 for FFA and 348.0 > 330.0 for 1ʹ‐OH‐midazolam‐d4 internal standard.
FFA and nFFA were evaluated as substrates of the transporters breast cancer resistance protein (BCRP), organic anion transporter (OAT)1, OAT3, organic cation transporter (OCT)2, MATE1, MATE2‐K, and P‐glycoprotein multidrug transporter (P‐gp; also known as MDR1 and ABCB1), according to published methods.[25], [26], [27], [28], [29] Madin‐Darby canine kidney (MDCKII)‐BCRP cells (Netherlands Cancer Institute, Amsterdam, Netherlands) or human embryonic kidney (HEK)293 cells transfected with other transporters (Sekisui Medical Co., Ltd., Tokyo, Japan) were used. Transporter‐transfected and control cells were incubated with FFA or nFFA (0.1, 1, or 10 μM), and the amount of FFA and nFFA accumulated in the cells was measured by LC‐MS/MS as described above. The accumulation of positive control substrates in the presence and absence of an inhibitor served as a positive control for transporter function. […] BCRP substrate determination was made by bi‐directional permeability across MDCKII‐BCRP and control cells cultured on 24‐well transwell plates. Incubation medium containing probe substrate was added. Ten minutes later, transepithelial electrical resistance (TEER) was recorded and cells were preincubated at 37 ± 2°C for 30−60 min before FFA or nFFA or positive control substrate with the solvent control or positive control inhibitor was added to the donor (apical) chamber. […] Samples containing FFA, nFFA, or probe substrate were mixed with internal standard and analyzed by LC‐MS/MS. […] An aliquot was added to 96‐well plate containing scintillation fluid that was analyzed by a MicroBeta^2 scintillation counter (Perkin Elmer, Waltham, MA). Protein concentration was determined by a bicinchoninic acid (BCA) protein assay according to the manufacturer’s protocol (Thermo Fisher Scientific, Waltham, MA). Non‐radiolabeled compounds were resuspended in a 50:50 v/v methanol:water solution containing internal standard and were analyzed by LC‐MS/MS. […]

SMILES | substrate of the transporter | Maximum Ratio (net flux in transporter‐expressing cells to control cells)
CCNC(C)Cc1cccc(C(F)(F)F)c1 (racemic) [FFA, (RS)‐ethyl (α‐methyl‐3‐trifluoromethylphenethyl)amine] | not substrates | 1.51
CC(N)Cc1cccc(C(F)(F)F)c1.Cl (stereo not shown) [nFFA, 1‐(3‐(trifluoromethyl)phenyl)propan‐2‐amine hydrochloride] | not substrates | 1.42
